The source made the active and inactive calls. The rule behind the calls is not given here.
Tests used:
Prothrombin [1] = biological target: T1, Prothrombin (Homo sapiens, UniProt P00734); experiment: Inhibitory activity against thrombin; NA=not active
Prothrombin [2] = biological target: T1, Prothrombin; details: at 400 nM
Description: Inhibitory activity against thrombin at 400 nM; NA=not active

Prothrombin [3] = biological target: T1, Prothrombin; experiment: Inhibitory activity against human thrombin
Prothrombin [4] = biological target: T1, Prothrombin; experiment: Inhibitory activity against thrombin at concentration 400 nM; NA: Not active

Compound | Ki (Prothrombin [3]) | further results
Cc1nc(N)ccc1CNC(=O)C1C=CCn2c(=O)n(C(CSc3ccc(Cl)c(Cl)c3)C(=O)N3CCOCC3)c(=O)n21 (configuration not stated) | – | Ki (Prothrombin [1]): Not Active
Cc1nc(N)ccc1CNC(=O)C1C=CCn2c(=O)n(C(CSc3ccc(Br)cc3)C(=O)O)c(=O)n21 (configuration not stated) | – | inhibition (Prothrombin [2]): inactive; Ki (Prothrombin [1]): Not Active
Cc1nc(N)ccc1CNC(=O)C1C=CCn2c(=O)n(C(CSc3ccc(Br)cc3)C(=O)N3CCOCC3)c(=O)n21 (configuration not stated) | 39 nM | –
COC(=O)C(CSc1ccc(Cl)cc1)n1c(=O)n2n(c1=O)C(C(=O)NCc1ccc(N)nc1C)C=CC2 (configuration not stated) | 82 nM | –
Cc1nc(N)ccc1CNC(=O)C1C=CCn2c(=O)n(C(CNCC(C)C)C(=O)O)c(=O)n21 (configuration not stated) | – | inhibition (Prothrombin [2]): inactive
COC(=O)C(CSCC(O)CO)n1c(=O)n2n(c1=O)C(C(=O)NCc1ccc(N)nc1C)C=CC2 (configuration not stated) | – | inhibition (Prothrombin [2]): inactive
N[C@H]1CC[C@H](CNC(=O)C2C=CCn3c(=O)n(C(CSc4ccccc4)C(=O)O)c(=O)n32)CC1 (some centres not stated) | 36 nM | –
Cc1nc(N)ccc1CNC(=O)C1C=CCn2c(=O)n(C(CSC3CCCCC3)C(=O)O)c(=O)n21 (configuration not stated) | 11 nM | –
Cc1nc(N)ccc1CNC(=O)C1C=CCn2c(=O)n(C(CSc3ccccc3)C(=O)O)c(=O)n21 (configuration not stated) | 15 nM | –
COC(=O)C(CSc1ccc(Br)cc1)n1c(=O)n2n(c1=O)C(C(=O)NC[C@H]1CC[C@H](N)CC1)C=CC2 (some centres not stated) | 0.023 nM | inhibition (Prothrombin [2]): inactive
COC(=O)C(CSc1ccc(Cl)c(Cl)c1)n1c(=O)n2n(c1=O)C(C(=O)NCc1ccc(N)nc1C)C=CC2 (configuration not stated) | 78 nM | –
COC(=O)C(CNCC(C)C)n1c(=O)n2n(c1=O)C(C(=O)NCc1ccc(N)nc1C)C=CC2 (configuration not stated) | – | inhibition (Prothrombin [2]): inactive
CC(=O)Nc1ccc(SCC(C(=O)O)n2c(=O)n3n(c2=O)C(C(=O)NC[C@H]2CC[C@H](N)CC2)C=CC3)cc1 (some centres not stated) | – | inhibition (Prothrombin [2]): inactive
CCCSCC(C(=O)O)n1c(=O)n2n(c1=O)C(C(=O)NC[C@H]1CC[C@H](N)CC1)C=CC2 (some centres not stated) | – | inhibition (Prothrombin [4]): inactive
N[C@H]1CC[C@H](CNC(=O)C2C=CCn3c(=O)n(C(CSc4ccc(Cl)c(Cl)c4)C(=O)O)c(=O)n32)CC1 (some centres not stated) | 13 nM | –
COc1ccc(SCC(C(=O)O)n2c(=O)n3n(c2=O)C(C(=O)NCc2ccc(N)nc2C)C=CC3)cc1 (configuration not stated) | 29 nM | –
N[C@H]1CC[C@H](CNC(=O)C2C=CCn3c(=O)n(C(CSC4CCCCC4)C(=O)O)c(=O)n32)CC1 (some centres not stated) | 53 nM | –
COC(=O)C(CSc1ccc(C)cc1C)n1c(=O)n2n(c1=O)C(C(=O)NCc1ccc(N)nc1C)C=CC2 (configuration not stated) | – | inhibition (Prothrombin [2]): inactive
CCOC(=O)C(CSc1ccc(Br)cc1)n1c(=O)n2n(c1=O)C(C(=O)NCc1ccc(N)nc1C)C=CC2 (configuration not stated) | 0.27 nM | –
Cc1nc(N)ccc1CNC(=O)C1C=CCn2c(=O)n(C(CSc3ccc(Cl)c(Cl)c3)C(=O)N3CCCC3)c(=O)n21 (configuration not stated) | 18 nM | –
Cc1nc(N)ccc1CNC(=O)C1C=CCn2c(=O)n(C(CSc3ccc(Cl)c(Cl)c3)C(=O)O)c(=O)n21 (configuration not stated) | 22 nM | –
COC(=O)C(CNC1CCCCC1)n1c(=O)n2n(c1=O)C(C(=O)NCc1ccc(N)nc1C)C=CC2 (configuration not stated) | – | inhibition (Prothrombin [2]): inactive
COC(=O)C(CSc1ccc(Cl)cc1)n1c(=O)n2n(c1=O)C(C(=O)NC[C@H]1CC[C@H](N)CC1)C=CC2 (some centres not stated) | 0.32 nM | –
Cc1nc(N)ccc1CNC(=O)C1C=CCn2c(=O)n(C(CSCC(C)C)C(=O)O)c(=O)n21 (configuration not stated) | – | inhibition (Prothrombin [2]): inactive
Cc1nc(N)ccc1CNC(=O)C1C=CCn2c(=O)n(C(CNCc3ccccc3)C(=O)O)c(=O)n21 (configuration not stated) | – | inhibition (Prothrombin [2]): inactive

Compound | Ki (Prothrombin [3]) | further results
N[C@H]1CC[C@H](CNC(=O)C2C=CCn3c(=O)n(C(CNC4CCCCC4)C(=O)O)c(=O)n32)CC1 (some centres not stated) | – | inhibition (Prothrombin [2]): inactive
Cc1nc(N)ccc1CNC(=O)C1C=CCn2c(=O)n(C(CSc3ccc(Br)cc3)C(=O)OC(C)C)c(=O)n21 (configuration not stated) | 0.087 nM | –
COC(=O)C(CSc1ccc(OC)cc1)n1c(=O)n2n(c1=O)C(C(=O)NC[C@H]1CC[C@H](N)CC1)C=CC2 (some centres not stated) | 0.75 nM | –
N[C@H]1CC[C@H](CNC(=O)C2C=CCn3c(=O)n(C(CSc4ccc(Cl)cc4)C(=O)O)c(=O)n32)CC1 (some centres not stated) | 5.7 nM | –
COC(=O)C(CSc1ccc(Cl)c(Cl)c1)n1c(=O)n2n(c1=O)C(C(=O)NC[C@H]1CC[C@H](N)CC1)C=CC2 (some centres not stated) | 0.24 nM | –
COc1ccc(SCC(C(=O)O)n2c(=O)n3n(c2=O)C(C(=O)NC[C@H]2CC[C@H](N)CC2)C=CC3)cc1 (some centres not stated) | 4.7 nM | –
COC(=O)C(CSC1CCCCC1)n1c(=O)n2n(c1=O)C(C(=O)NCc1ccc(N)nc1C)C=CC2 (configuration not stated) | 28 nM | –
Cc1nc(N)ccc1CNC(=O)C1C=CCn2c(=O)n(C(CSc3ccc(Br)cc3)C(=O)N3CCCC3)c(=O)n21 (configuration not stated) | 30 nM | –
Cc1nc(N)ccc1CNC(=O)C1C=CCn2c(=O)n(C(CSc3ccc(Cl)c(Cl)c3)C(=O)OC3CCCCC3)c(=O)n21 (configuration not stated) | 87 nM | –
Cc1nc(N)ccc1CNC(=O)C1C=CCn2c(=O)n(C(CSc3ccc(Br)cc3)C(=O)OC3CCCCC3)c(=O)n21 (configuration not stated) | 1.5 nM | –
COC(=O)C(CSc1ccccc1)n1c(=O)n2n(c1=O)C(C(=O)NCc1ccc(N)nc1C)C=CC2 (configuration not stated) | 32 nM | –
Cc1nc(N)ccc1CNC(=O)C1C=CCn2c(=O)n(C(CSc3ccc(Cl)cc3)C(=O)N3CCOCC3)c(=O)n21 (configuration not stated) | 7.7 nM | –
COC(=O)C(CSc1ccccc1)n1c(=O)n2n(c1=O)C(C(=O)NC[C@H]1CC[C@H](N)CC1)C=CC2 (some centres not stated) | 2.9 nM | –
COC(=O)C(CSc1ccc(Br)cc1)n1c(=O)n2n(c1=O)C(C(=O)NCc1ccc(N)nc1C)C=CC2 (configuration not stated) | 83 nM | –
COC(=O)C(CSc1ccc(OC)cc1)n1c(=O)n2n(c1=O)C(C(=O)NCc1ccc(N)nc1C)C=CC2 (configuration not stated) | 80 nM | –
CCOC(=O)C(CSc1ccc(Cl)cc1)n1c(=O)n2n(c1=O)C(C(=O)NCc1ccc(N)nc1C)C=CC2 (configuration not stated) | – | Ki (Prothrombin [1]): Not Active
Cc1nc(N)ccc1CNC(=O)C1C=CCn2c(=O)n(C(CSc3ccc(Cl)cc3)C(=O)OC3CCCCC3)c(=O)n21 (configuration not stated) | 0.057 nM | –
N[C@H]1CC[C@H](CNC(=O)C2C=CCn3c(=O)n(C(CSc4ccc(Br)cc4)C(=O)O)c(=O)n32)CC1 (some centres not stated) | 2.6 nM | –
Cc1nc(N)ccc1CNC(=O)C1C=CCn2c(=O)n(C(CSc3ccc(Cl)c(Cl)c3)C(=O)OC(C)C)c(=O)n21 (configuration not stated) | 53 nM | –
COC(=O)C(CSC1CCCCC1)n1c(=O)n2n(c1=O)C(C(=O)NC[C@H]1CC[C@H](N)CC1)C=CC2 (some centres not stated) | 91 nM | –
Cc1nc(N)ccc1CNC(=O)C1C=CCn2c(=O)n(C(CSc3ccc(Cl)cc3)C(=O)N3CCCC3)c(=O)n21 (configuration not stated) | 24 nM | –
Cc1nc(N)ccc1CNC(=O)C1C=CCn2c(=O)n(C(CSc3ccc(Cl)cc3)C(=O)OC(C)C)c(=O)n21 (configuration not stated) | 1.5 nM | –
CCCSCC(C(=O)O)n1c(=O)n2n(c1=O)C(C(=O)NCc1ccc(N)nc1C)C=CC2 (configuration not stated) | – | inhibition (Prothrombin [2]): inactive
CCOC(=O)C(CSc1ccc(Cl)c(Cl)c1)n1c(=O)n2n(c1=O)C(C(=O)NCc1ccc(N)nc1C)C=CC2 (configuration not stated) | 28 nM | –
Cc1nc(N)ccc1CNC(=O)C1C=CCn2c(=O)n(C(CSc3ccc(Cl)cc3)C(=O)O)c(=O)n21 (configuration not stated) | 32 nM | –
